Results from PubChem BioAssay (NCI).
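Protocol summary: plate cells (96-well), add compound at 5 concentrations, incubate 48 h, interpolate endpoints linearly. At the GI50, growth is halved. At the TGI there is no net growth.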

Experiments:
Assay in all cases: DTP human tumour cell line panel, 48 h
HCT-15 colon = tested on: HCT-15 colon
OVCAR-8 ovarian = tested on: OVCAR-8 ovarian
MDA-MB-435 = tested on: MDA-MB-435
SF-539 CNS = tested on: SF-539 CNS
UACC-257 melanoma = tested on: UACC-257 melanoma
BT-549 breast = tested on: BT-549 breast
K-562 leukemia = tested on: K-562 leukemia
NCI/ADR-RES ovarian = tested on: NCI/ADR-RES ovarian
SK-MEL-2 melanoma = tested on: SK-MEL-2 melanoma
A498 renal = tested on: A498 renal
SNB-19 CNS = tested on: SNB-19 CNS
RXF 393 renal = tested on: RXF 393 renal
NCI-H522 lung = tested on: NCI-H522 lung
EKVX NSCLC = tested on: EKVX NSCLC
MALME-3M melanoma = tested on: MALME-3M melanoma
M14 melanoma = tested on: M14 melanoma
A549 NSCLC = tested on: A549 NSCLC
OVCAR-4 ovarian = tested on: OVCAR-4 ovarian
SR leukemia = tested on: SR leukemia
SK-OV-3 ovarian = tested on: SK-OV-3 ovarian
HCT-116 colon = tested on: HCT-116 colon
CAKI-1 renal = tested on: CAKI-1 renal
SF-295 CNS = tested on: SF-295 CNS
HOP-62 NSCLC = tested on: HOP-62 NSCLC
HL-60(TB) leukemia = tested on: HL-60(TB) leukemia
RPMI-8226 leukemia = tested on: RPMI-8226 leukemia
UO-31 renal = tested on: UO-31 renal
OVCAR-3 ovarian = tested on: OVCAR-3 ovarian
SF-268 CNS = tested on: SF-268 CNS
DU-145 prostate = tested on: DU-145 prostate
PC-3 prostate = tested on: PC-3 prostate
SN12C renal = tested on: SN12C renal
KM12 colon = tested on: KM12 colon
NCI-H226 lung = tested on: NCI-H226 lung
TK-10 renal = tested on: TK-10 renal
LOX IMVI melanoma = tested on: LOX IMVI melanoma
HT29 colon = tested on: HT29 colon
MOLT-4 leukemia = tested on: MOLT-4 leukemia
T-47D breast = tested on: T-47D breast
COLO 205 colon = tested on: COLO 205 colon
NCI-H23 lung = tested on: NCI-H23 lung
SK-MEL-5 melanoma = tested on: SK-MEL-5 melanoma
IGROV1 ovarian = tested on: IGROV1 ovarian
NCI-H460 lung = tested on: NCI-H460 lung
SNB-75 CNS = tested on: SNB-75 CNS
SK-MEL-28 melanoma = tested on: SK-MEL-28 melanoma
OVCAR-5 ovarian = tested on: OVCAR-5 ovarian
SW-620 colon = tested on: SW-620 colon
786-0 renal = tested on: 786-0 renal
UACC-62 melanoma = tested on: UACC-62 melanoma
MDA-MB-231 breast = tested on: MDA-MB-231 breast
HOP-92 NSCLC = tested on: HOP-92 NSCLC
HS 578T breast = tested on: HS 578T breast
ACHN renal = tested on: ACHN renal
CCRF-CEM leukemia = tested on: CCRF-CEM leukemia
U251 CNS = tested on: U251 CNS
MCF7 breast = tested on: MCF7 breast

`COc1ccc(-c2oc(=O)ccc2C#Cc2cc(OC)c(OC)c(OC)c2)cc1O` showed a GI50 (HCT-15 colon) of 26.3 µM, a TGI (HCT-15 colon) greater than 100 µM and a GI50 (OVCAR-8 ovarian) of 35.2 µM. The TGI (OVCAR-8 ovarian) was greater than 100 µM, the GI50 (MDA-MB-435) was 11.5 µM and the TGI (MDA-MB-435) was 81.7 µM. For the same compound, the GI50 (SF-539 CNS) was 20 µM, the TGI (SF-539 CNS) was 86.2 µM and the GI50 (UACC-257 melanoma) was 36.4 µM. For the same compound, the TGI (UACC-257 melanoma) was greater than 100 µM, the GI50 (BT-549 breast) was 27 µM and the TGI (BT-549 breast) was greater than 100 µM. The GI50 (K-562 leukemia) was 13.8 µM, the TGI (K-562 leukemia) was greater than 100 µM and the GI50 (NCI/ADR-RES ovarian) was 24.4 µM. The TGI (NCI/ADR-RES ovarian) was greater than 100 µM, the GI50 (SK-MEL-2 melanoma) was 28 µM and the TGI (SK-MEL-2 melanoma) was greater than 100 µM. The GI50 (A498 renal) was 30 µM, the TGI (A498 renal) was 76.8 µM and the GI50 (SNB-19 CNS) was 31.4 µM. It also gave a TGI (SNB-19 CNS) greater than 100 µM, a GI50 (RXF 393 renal) of 10.9 µM and a TGI (RXF 393 renal) of 31.9 µM. For the same compound, the GI50 (NCI-H522 lung) was 8.7 µM, the TGI (NCI-H522 lung) was 37.5 µM and the GI50 (EKVX NSCLC) was 66.7 µM. It also gave a TGI (EKVX NSCLC) greater than 100 µM, a GI50 (MALME-3M melanoma) of 71.8 µM and a TGI (MALME-3M melanoma) greater than 100 µM. For the same compound, the GI50 (M14 melanoma) was 26.9 µM, the TGI (M14 melanoma) was greater than 100 µM and the GI50 (A549 NSCLC) was 39.5 µM. The TGI (A549 NSCLC) was greater than 100 µM, the GI50 (OVCAR-4 ovarian) was 67 µM and the TGI (OVCAR-4 ovarian) was greater than 100 µM. It also gave a GI50 (SR leukemia) of 2.75 µM, a TGI (SR leukemia) of 33.5 µM and a GI50 (SK-OV-3 ovarian) of 30.7 µM. It also gave a TGI (SK-OV-3 ovarian) greater than 100 µM, a GI50 (HCT-116 colon) of 18.6 µM and a TGI (HCT-116 colon) greater than 100 µM. It also gave a GI50 (CAKI-1 renal) of 32.8 µM, a TGI (CAKI-1 renal) greater than 100 µM and a GI50 (SF-295 CNS) of 12.8 µM. It also gave a TGI (SF-295 CNS) of 75.4 µM, a GI50 (HOP-62 NSCLC) of 18.5 µM and a TGI (HOP-62 NSCLC) of 87.4 µM. It also gave a GI50 (HL-60(TB) leukemia) of 8.96 µM, a TGI (HL-60(TB) leukemia) of 35.7 µM and a GI50 (RPMI-8226 leukemia) of 10.9 µM. It also gave a TGI (RPMI-8226 leukemia) of 35.1 µM, a GI50 (UO-31 renal) of 30.9 µM and a TGI (UO-31 renal) greater than 100 µM. It also gave a GI50 (OVCAR-3 ovarian) of 20.9 µM, a TGI (OVCAR-3 ovarian) of 70.6 µM and a GI50 (SF-268 CNS) of 15.7 µM. The TGI (SF-268 CNS) was 58.5 µM, the GI50 (DU-145 prostate) was 38.6 µM and the TGI (DU-145 prostate) was greater than 100 µM. It also gave a GI50 (PC-3 prostate) of 23.3 µM, a TGI (PC-3 prostate) greater than 100 µM and a GI50 (SN12C renal) of 41.5 µM. The TGI (SN12C renal) was greater than 100 µM, the GI50 (KM12 colon) was 50 µM and the TGI (KM12 colon) was greater than 100 µM. For the same compound, the GI50 (NCI-H226 lung) was 50.5 µM, the TGI (NCI-H226 lung) was greater than 100 µM and the GI50 (TK-10 renal) was 83.9 µM. It also gave a TGI (TK-10 renal) greater than 100 µM, a GI50 (LOX IMVI melanoma) of 24.2 µM and a TGI (LOX IMVI melanoma) greater than 100 µM. For the same compound, the GI50 (HT29 colon) was 37.9 µM, the TGI (HT29 colon) was greater than 100 µM and the GI50 (MOLT-4 leukemia) was 3.17 µM. The TGI (MOLT-4 leukemia) was greater than 100 µM, the GI50 (T-47D breast) was 30.7 µM and the TGI (T-47D breast) was greater than 100 µM. It also gave a GI50 (COLO 205 colon) of 89.5 µM, a TGI (COLO 205 colon) greater than 100 µM and a GI50 (NCI-H23 lung) of 22.3 µM. The TGI (NCI-H23 lung) was 81.2 µM, the GI50 (SK-MEL-5 melanoma) was 7.55 µM and the TGI (SK-MEL-5 melanoma) was 26.6 µM. The GI50 (IGROV1 ovarian) was 39.9 µM, the TGI (IGROV1 ovarian) was greater than 100 µM and the GI50 (NCI-H460 lung) was 15.7 µM. For the same compound, the TGI (NCI-H460 lung) was 62.9 µM, the GI50 (SNB-75 CNS) was 20.8 µM and the TGI (SNB-75 CNS) was 69.9 µM. The GI50 (SK-MEL-28 melanoma) was 37.7 µM, the TGI (SK-MEL-28 melanoma) was greater than 100 µM and the GI50 (OVCAR-5 ovarian) was greater than 100 µM. It also gave a TGI (OVCAR-5 ovarian) greater than 100 µM, a GI50 (SW-620 colon) of 31.1 µM and a TGI (SW-620 colon) greater than 100 µM. It also gave a GI50 (786-0 renal) of 24.8 µM, a TGI (786-0 renal) greater than 100 µM and a GI50 (UACC-62 melanoma) of 13.5 µM. The TGI (UACC-62 melanoma) was 63.5 µM, the GI50 (MDA-MB-231 breast) was 11.6 µM and the TGI (MDA-MB-231 breast) was greater than 100 µM. For the same compound, the GI50 (HOP-92 NSCLC) was 5.47 µM, the TGI (HOP-92 NSCLC) was 31.2 µM and the GI50 (HS 578T breast) was 30.2 µM. The TGI (HS 578T breast) was greater than 100 µM, the GI50 (ACHN renal) was 11.6 µM and the TGI (ACHN renal) was 44.3 µM. The GI50 (CCRF-CEM leukemia) was 2.79 µM, the TGI (CCRF-CEM leukemia) was greater than 100 µM and the GI50 (U251 CNS) was 13.5 µM. It also gave a TGI (U251 CNS) of 50.6 µM, a GI50 (MCF7 breast) of 15.9 µM and a TGI (MCF7 breast) of 51.7 µM.
